Measured values from patent publication US7244727B2, “Fused bicyclic nitrogen-containing heterocycles” (Japan Tobacco Inc., priority 2002, dated 2007).
Where “and” joins values, the source holds several entries; their conditions need not be identical. Identical values can stand only once.

Assays:
human DGAT1 = biological target: T1, human DGAT1 (Homo sapiens, UniProt O75907); assay: DGAT Scintillation Proximity Assay (SPA) with membranes of insect cells expressing human flagtag DGAT1; assay type: biochemical; conditions: read-out: hDGAT1 IC50
T1 construct: made in house; host or cells: insect cells (sf9, sf21 or High Five) infected with baculovirus; total cell membranes
T1 sequence (O75907 1-488): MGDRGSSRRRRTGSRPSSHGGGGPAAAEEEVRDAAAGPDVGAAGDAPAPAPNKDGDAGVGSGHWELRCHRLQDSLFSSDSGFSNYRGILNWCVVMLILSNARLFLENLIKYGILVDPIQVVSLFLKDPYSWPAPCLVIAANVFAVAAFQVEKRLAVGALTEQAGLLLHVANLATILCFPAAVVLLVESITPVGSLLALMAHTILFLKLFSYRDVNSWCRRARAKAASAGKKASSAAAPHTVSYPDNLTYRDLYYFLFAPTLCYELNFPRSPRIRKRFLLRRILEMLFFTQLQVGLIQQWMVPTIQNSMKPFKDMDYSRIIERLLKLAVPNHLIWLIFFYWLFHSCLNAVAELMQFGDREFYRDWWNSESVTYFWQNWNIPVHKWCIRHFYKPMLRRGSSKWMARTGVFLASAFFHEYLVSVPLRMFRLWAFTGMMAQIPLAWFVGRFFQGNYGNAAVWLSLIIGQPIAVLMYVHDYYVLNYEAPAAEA
Outline: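 Membranes (0.2 μg/well) from insect cells expressing human flag-tagged DGAT1 incubated with 10 μM compound and 200 μM dioleoyl glycerol substrate; mercuric chloride as inhibition control. Reaction stopped with WGA SPA beads in mercuric chloride, overnight bead coupling, then scintillation proximity signal read.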

| IC50 (human DGAT1) | melting point | SMILES |
| --- | --- | --- |
| 10 to 100 nM | 201 to 202 °C | CC1(C)Oc2ncnc(N)c2N=C1c1ccc([C@H]2CC[C@H](C(=O)N3CCCC3)CC2)cc1 [Example 2-235] |
| 10 to 100 nM | 220 to 224 °C | CC1(C)Oc2ncnc(N)c2N=C1c1ccc([C@H]2CC[C@H](C(=O)N3CCCCC3)CC2)cc1 [Example 2-236] |
| 10 to 100 nM | 250 to 252 °C | CC1(C)Oc2ncnc(N)c2N=C1c1ccc([C@H]2CC[C@H](C(=O)N3CCC(O)CC3)CC2)cc1 [Example 2-237] |
| > 100 nM | 190 to 191 °C | CN1CCN(C(=O)[C@H]2CC[C@H](c3ccc(C4=Nc5c(N)ncnc5OC4(C)C)cc3)CC2)CC1 [Example 2-238] |
| > 100 nM | 233 to 235 °C | CC1(C)Oc2ncnc(N)c2N=C1c1ccc([C@H]2CC[C@H](C(=O)N3CCOCC3)CC2)cc1 [Example 2-239] |
| 10 to 100 nM | 233 to 235 °C | CC1(C)Oc2ncnc(N)c2N=C1c1ccc([C@H]2CC[C@H](CN3CCN(S(C)(=O)=O)CC3)CC2)cc1 [Example 2-240] |
| 10 to 100 nM | 120 to 126 °C | CC(C)C(=O)N1CCN(C[C@H]2CC[C@H](c3ccc(C4=Nc5c(N)ncnc5OC4(C)C)cc3)CC2)CC1 [Example 2-241] |
| 10 to 100 nM | 208 to 210 °C | CN(C[C@H]1CC[C@H](c2ccc(C3=Nc4c(N)ncnc4OC3(C)C)cc2)CC1)C(=O)CO [Example 2-243] |
| 10 to 100 nM | 208 to 209 °C | CC1(C)Oc2ncnc(N)c2N=C1c1ccc([C@H]2CC[C@H](CN3CCNCC3)CC2)cc1 [Example 2-244] |
| 10 to 100 nM | 180 to 182 °C | CCCNC(=O)N1CCN(C[C@H]2CC[C@H](c3ccc(C4=Nc5c(N)ncnc5OC4(C)C)cc3)CC2)CC1 [Example 2-245] |
| 10 to 100 nM | 158 to 160 °C | CC1(C)Oc2ncnc(N)c2N=C1c1ccc([C@H]2CC[C@H](CN3CCN(C(N)=O)CC3)CC2)cc1 [Example 2-246] |
| 10 to 100 nM | 205 to 206 °C | CC1(C)Oc2ncnc(N)c2N=C1c1ccc([C@H]2CC[C@H](CN3CCN(C(=O)CO)CC3)CC2)cc1 [Example 2-247] |
| 10 to 100 nM | 207 to 208 °C | CC(C)(O)C(=O)N1CCN(C[C@H]2CC[C@H](c3ccc(C4=Nc5c(N)ncnc5OC4(C)C)cc3)CC2)CC1 [Example 2-248] |
| 10 to 100 nM | 202 to 203 °C | CC(=O)N1CCN(C[C@H]2CC[C@H](c3ccc(C4=Nc5c(N)ncnc5OC4(C)C)cc3)CC2)CC1 [Example 2-249] |
| 10 to 100 nM | 220 to 240 °C | CC1(C)Oc2ncnc(N)c2N=C1c1ccc([C@H]2CC[C@H](C(=O)N3C[C@@H](O)[C@@H](O)C3)CC2)cc1 [Example 2-250] |
| 10 to 100 nM | 159 to 164 °C | CC1(C)Oc2ncnc(N)c2N=C1c1ccc([C@H]2CC[C@H](CN3CCC(C(N)=O)CC3)CC2)cc1 [Example 2-251] |
| 10 to 100 nM | 209 to 211 °C | CCNS(=O)(=O)C[C@H]1CC[C@H](c2ccc(C3=Nc4c(N)ncnc4OC3(C)C)cc2)CC1 [Example 2-252] |
| < 10 nM | 248 °C (dec.) | CC1(C)Oc2ncnc(N)c2N=C1c1ccc([C@H]2CC[C@H](CSCC(=O)O)CC2)cc1 [Example 2-253] |
| 10 to 100 nM | 213 to 214 °C | CC1(C)Oc2ncnc(N)c2N=C1c1ccc([C@H]2CC[C@H](C(=O)CO)CC2)cc1 [Example 2-254] |
| 10 to 100 nM | > 250 °C | Cc1nc(N)c2c(n1)OC(C)(C)C(c1ccc([C@H]3CC[C@H](C(=O)O)CC3)cc1)=N2 [Example 2-255] |
| 10 to 100 nM | 172 to 175 °C | Cc1nc(N)c2c(n1)OC(C)(C)C(c1ccc([C@H]3CC[C@H](C(=O)NS(C)(=O)=O)CC3)cc1)=N2 [Example 2-256] |
| 10 to 100 nM | 220 to 225 °C | Cc1nc(N)c2c(n1)OC(C)(C)C(c1ccc([C@H]3CC[C@H](C(=O)NC(C)(C)CO)CC3)cc1)=N2 [Example 2-257] |
| 10 to 100 nM | > 250 °C | Cc1nc(N)c2c(n1)OC(C)(C)C(c1ccc([C@H]3CC[C@H](C(=O)N4C[C@@H](O)[C@@H](O)C4)CC3)cc1)=N2 [Example 2-258] |
| 10 to 100 nM | 271 to 277 °C | Cc1nc(N)c2c(n1)OC(C)(C)C(c1ccc([C@H]3CC[C@H](CSCC(=O)O)CC3)cc1)=N2 [Example 2-259] |
| 10 to 100 nM | 235 to 239 °C | Cc1nc(N)c2c(n1)OC(C)(C)C(c1ccc([C@H]3CC[C@H](CSC(C)(C)C(=O)O)CC3)cc1)=N2 [Example 2-260] |

| IC50 (human DGAT1) | melting point | SMILES |
| --- | --- | --- |
| 10 to 100 nM | 225 to 227 °C | Cc1nc(N)c2c(n1)OC(C)(C)C(c1ccc([C@H]3CC[C@H](CS(=O)(=O)CC(=O)O)CC3)cc1)=N2 [Example 2-261] |
| 10 to 100 nM | > 166 °C | Cc1nc(N)c2c(n1)OC(C)(C)C(c1ccc([C@H]3CC[C@H](C[S+]([O-])CC(=O)O)CC3)cc1)=N2 (stereo partly shown) [Example 2-262] |
| < 10 nM | > 250 °C | Cc1nc(N)c2c(n1)OC(C)(C)C(c1ccc([C@H]3CC[C@H](c4nn[nH]n4)CC3)cc1)=N2 [Example 2-263] |
| 10 to 100 nM | > 250 °C | Cc1nc(N)c2c(n1)OC(C)(C)C(c1ccc([C@H]3CC[C@H](C(=O)Nc4nn[nH]n4)CC3)cc1)=N2 [Example 2-264] |
| > 100 nM | 232 to 237 °C | CC(=O)N1CCC(c2ccc(C3=Nc4c(N)ncnc4OC3(C)C)cc2)CC1 [Example 3-3] |
| 10 to 100 nM | 188 to 190 °C and 188.8 to 190.9 °C | CC1(C)Oc2ncnc(N)c2N=C1c1ccc(C2CCN(C(=O)C(=O)O)CC2)cc1 [Example 3] |
| > 100 nM | 176 to 177 °C | CCOC(=O)C1CCN(c2ccc(C3=Nc4c(N)ncnc4OC3(C)C)cc2)CC1 [Example 4-3] |
| 10 to 100 nM | > 240 °C | CC1(C)Oc2ncnc(N)c2N=C1c1ccc(N2CCC(C(=O)O)CC2)cc1 [Example 4-4] |
| > 100 nM | 174 to 175 °C | CCOC(=O)N1CCN(c2ccc(C3=Nc4c(N)ncnc4OC3(C)C)cc2)CC1 [Example 4-5] |
| > 100 nM | 191 to 196 °C | CC1(C)Oc2ncnc(N)c2N=C1c1ccc(N2CCCC2)cc1 [Example 4-6] |
| > 100 nM | 130 to 131 °C | CC1(C)Oc2ncnc(N)c2N=C1c1cccc(OCc2ccccc2)c1 [Example 5-2] |
| > 100 nM | 151 to 152 °C | CC1(C)Oc2ncnc(N)c2N=C1c1cccc(OCC2CCCCC2)c1 [Example 5-3] |
| > 100 nM | 117 to 133 °C and 117.2 to 133.4 °C | CC1(C)Oc2ncnc(N)c2N=C1c1cccc(Cl)c1 [Example 5] |
| 10 to 100 nM | 229 to 232 °C | Cc1nc(N)c2c(n1)OC(C)(C)C(c1ccc([C@H]3CC[C@H](CNC(=O)CO)CC3)c(Cl)c1)=N2 [Example 6-2] |
| 10 to 100 nM | 280 °C (dec.) | Cc1nc(N)c2c(n1)OC(C)(C)C(c1ccc([C@H]3CC[C@H](CC(=O)O)CC3)c(N)c1)=N2 [Example 6-3] |
| > 100 nM | 177 °C (dec.) | Cc1nc(N)c2c(n1)OC(C)(C)C(c1ccc([C@H]3CC[C@H](CC(=O)O)CC3)c(N3CCCC3=O)c1)=N2 [Example 6-4] |
| 10 to 100 nM | 224 to 225 °C | CCOc1cc(C2=Nc3c(N)nc(C)nc3OC2(C)C)ccc1[C@H]1CC[C@H](CC(=O)O)CC1 [Example 6-8] |
| < 10 nM | > 269 °C | Cc1nc(N)c2c(n1)OC(C)(C)C(c1ccc([C@H]3CC[C@H](CC(=O)O)CC3)c(F)c1)=N2 [Example 6-9] |
| 10 to 100 nM | 212 to 214 °C | Cc1nc(N)c2c(n1)OC(C)(C)C(c1ccc([C@H]3CC[C@H](CNC(=O)CO)CC3)c(F)c1)=N2 [Example 6-10] |
| 10 to 100 nM | > 282 °C | Cc1nc(N)c2c(n1)OC(C)(C)C(c1ccc([C@H]3CC[C@H](Cc4noc(=O)[nH]4)CC3)c(F)c1)=N2 [Example 6-11] |
| < 10 nM | 171 to 173 °C | Cc1nc(N)c2c(n1)OC(C)(C)C(c1ccc([C@H]3CC[C@H](Cc4cc(O)[nH]n4)CC3)c(Cl)c1)=N2 [Example 6-12] |
| < 10 nM | > 250 °C | CCNC(=O)NC[C@H]1CC[C@H](c2ccc(C3=Nc4c(N)nc(C)nc4OC3(C)C)cc2Cl)CC1 [Example 6-13] |
| 10 to 100 nM | 205 to 209 °C | Cc1nc(N)c2c(n1)OC(C)(C)C(c1ccc([C@H]3CC[C@H](CNC(=O)OCC(C)C)CC3)c(Cl)c1)=N2 [Example 6-14] |
| 10 to 100 nM | 225 to 228 °C | Cc1nc(N)c2c(n1)OC(C)(C)C(c1ccc([C@H]3CC[C@H](CNC(=O)N4CCOCC4)CC3)c(Cl)c1)=N2 [Example 6-15] |
| > 100 nM | > 250 °C | Cc1nc(N)c2c(n1)OC(C)(C)C(c1ccc([C@H]3CC[C@H](CNC(=O)N(C)C)CC3)c(Cl)c1)=N2 [Example 6-16] |
